From patent US20230332232A1, “COMPOSITIONS AND METHODS FOR DIAGNOSING AND TREATING A DYSTONIA” (Duke University, priority 2020, published 2023)

System: DYT1 knockin (Tor1a^delGAG/+) murine embryonic fibroblasts (MEFs)
Test: microRNA-seq of EVs from DYT1 MEFs treated with drug, compared with non-treated DYT1 MEFs
Assay type: cell-based, mouse
Protocol: In addition to proteomic analysis, total RNA-seq and microRNA-seq was performed on RNA isolated in parallel from the EV samples of Cohort 2. As with the proteomic analysis, one biological replicate was prepared from 3 distinct biological clonal cell lines for each genotype. Here, EVs were isolated from conditioned cell culture media by 18 hour ultracentrifugation at 100,000 g. RNA was extracted using the Qiagen miRNeasy Micro Kit (Cat. No. 217084) according to the manufacturer's protocol. Two RNA fractions were extracted from each sample, one enriched in coding and non-coding RNA species>200 nt (“Total RNA” fraction) and one enriched for small RNAs<200 nt (“miRNA” fraction). RNA samples were then submitted to the Duke Sequencing and Genomic Technologies shared resource for further quality control and sequencing. Samples were assessed for concentration and integrity by Qubit and Fragment Analyzer. The miRNA fractions were 4.16 ng/μL-47.57 ng/μL and total RNA fractions were 3.8 ng/μL-43.6 ng/μL. The small RNA library was prepared using the QIAseq miRNA Library Kit (Cat No./ID: 331505) and sequenced on the Illumina NextSeq 500 High-Output platform with 75 bp single-reads. The total RNA library was prepared using the Illumina TruSeq Stranded Total RNA-seq Kit with Ribozero Gold ribosomal RNA reduction and sequenced on the Illumina NovaSeq 6000 S1 platform with 100 bp paired-end reads. Sequencer lane pooling and read depth are attached in the Excel data summary (See “RNA QC” Tab). Data processing and analysis were performed in collaboration with the Duke Genomic Analysis and Bioinformatics shared resource. RNA-seq data was processed using the TrimGalore toolkit (http://www.bioinformatics.babraham.ac.uk/projects/trim_galore), which employs Cutadapt(Martin M. (2011) EMBnet.journal. 17(1):10-12) to trim low quality bases and Illumina sequencing adapters from the 3' end of the reads. Only reads that were 20 nt or longer after trimming were kept for further analysis. Reads were mapped to the mouse genome and transcriptome ([…], et al. (2012) Nucleic Acids Res. 40(Database issue):[…]-97) using the STAR RNA-seq alignment tool (Dobin A, et al. (2013). Bioinformatics. 29(1):15-21). If the reads mapped to a single genomic location, then they were kept for subsequent analysis. Gene counts were compiled using the HTSeq tool (http://www-huber.embl.de/users/anders/HTSeq/). Only genes that had at least 10 reads in any given library were used in subsequent analysis. Normalization and differential expression was carried out using the DESeq26 Bioconductor (Huber W, et al. (2015) Nat Methods. 12(2):115-121) package with the R statistical programming environment (www.r-project.org). […] 694 miRNAs were initially examined with respect to QC, genotype, RTV effects, and ISRIB effects. This subset was the “Full miRNA” subset. FIG. 9A and FIG. 9B show the RTV effect on EV composition in DYT1 cells compared to WT cells for 279 miRNAs, respectively. […] Beginning with the 694 miRNAs in the “Full miRNA” subset, more than 60 molecules were detected in either WT cells or DYT1 cells (WT or Het UMI>60). […] The candidate miRNAs were ranked by the sum of genotype-dependent absolute Z-scores and RTV-induced absolute Z-scores (Abs Z Score Sum (Geno+RTV)). This subset was the “miRNA-Ritonavir Therapeutic Efficacy” subset and contained 201 miRNAs.

[1] = RTV-treated vs non-treated DYT1 (Het) MEF EVs
[2] = mmu-miR-34a-5p, EVs of DYT1 (Het) MEFs
[3] = mmu-miR-34c-5p, EVs of DYT1 (Het) MEFs
[4] = mmu-miR-96-5p, EVs of DYT1 (Het) MEFs
[5] = mmu-miR-125b-1-3p, EVs of DYT1 (Het) MEFs
[6] = mmu-miR-130b-3p, EVs of DYT1 (Het) MEFs
[7] = mmu-miR-140-3p, EVs of DYT1 (Het) MEFs
[8] = mmu-miR-148a-3p, EVs of DYT1 (Het) MEFs
[9] = mmu-miR-182-5p, EVs of DYT1 (Het) MEFs

SMILES: CC(C)c1nc(CN(C)C(=O)N[C@H](C(=O)N[C@@H](Cc2ccccc2)C[C@H](O)[C@H](Cc2ccccc2)NC(=O)OCc2cncs2)C(C)C)cs1 [RTV, Ritonavir]
- direction of modulated EV miRNA expression (DYT1 cells, miRNA-Ritonavir Therapeutic Efficacy subset, 201 miRNAs): modulated expression in a therapeutic direction
- RTV Direction Opposite dE? (EV miRNA mmu−let−7c−5p (housekeeping)): yes
- RTV Direction Opposite dE? (EV miRNA mmu−miR−22−3p): yes
- RTV Direction Opposite dE? (EV miRNA mmu−miR−34a−5p): yes
- RTV Direction Opposite dE? (EV miRNA mmu−miR−96−5p): yes
- RTV Direction Opposite dE? (EV miRNA mmu−miR−135a−5p): yes
- RTV Direction Opposite dE? (EV miRNA mmu−miR−182−5p): yes
- RTV Direction Opposite dE? (EV miRNA mmu−miR−183−5p): yes
- RTV Direction Opposite dE? (EV miRNA mmu−miR−199a−3p): yes
- RTV Direction Opposite dE? (EV miRNA mmu−miR−296−3p): yes
- RTV Direction Opposite dE? (EV miRNA mmu−miR−542−5p): yes
- mmu-miR-147-5p: RTVvHet Z Score [1]: −0.07
- mmu-miR-181a-1-3p: RTVvHet Z Score [1]: 0.08
- mmu-miR-331-5p: RTVvHet Z Score [1]: 0.00
- mmu-miR-668-3p: RTVvHet Z Score [1]: 0.31
- mmu-miR-1930-5p: RTVvHet Z Score [1]: 0.00
- mmu-miR-1943-5p: RTVvHet Z Score [1]: 0.23
- mmu-miR-1955-5p: RTVvHet Z Score [1]: 0.00
- mmu-miR-3072-5p: RTVvHet Z Score [1]: −0.38
- mmu-miR-3076-3p: RTVvHet Z Score [1]: 0.00
- mmu-miR-3088-3p: RTVvHet Z Score [1]: 0.18
- mmu-miR-6936-3p: RTVvHet Z Score [1]: 0.00
- mmu-miR-7224-3p: RTVvHet Z Score [1]: −0.17
- mmu-miR-467d-3p: RTVvHet Z Score [1]: −0.11
- RTVvHet Z Score (mmu-let-7a-1-3p): 0.62
- RTVvHet Z Score (mmu-let-7c-2-3p): 0.62
- RTV Direction Opposite dE? (mmu-let-7f-5p, EVs of DYT1 (Het) MEFs): yes
- RTVvHet Z Score (mmu-let-7g-5p): 0.50
- RTVvHet Z Score (mmu-let-7i-3p): 1.15
- RTV Direction Opposite dE? (mmu-let-7i-5p, EVs of DYT1 (Het) MEFs): yes
- RTV Direction Opposite dE? (mmu-miR-30e-5p, EVs of DYT1 (Het) MEFs): yes
- RTVvHet Z Score (mmu-miR-30e-3p): 0.49
- RTVvHet Z Score (mmu-miR-15a-5p): 0.22
- RTVvHet Z Score (mmu-miR-16-5p): 0.21
- RTVvHet Z Score (mmu-miR-17-3p): 0.02
- RTV Direction Opposite dE? (mmu-miR-19b-3p, EVs of DYT1 (Het) MEFs): yes
- RTVvHet Z Score (mmu-miR-22-3p): 1.26
- RTV Direction Opposite dE? (mmu-miR-22-3p, EVs of DYT1 (Het) MEFs): yes
- RTVvHet Z Score (mmu-miR-23a-3p): 0.46
- RTVvHet Z Score (mmu-miR-25-3p): 0.71
- RTV Direction Opposite dE? (mmu-miR-26b-Sp, EVs of DYT1 (Het) MEFs): yes
- RTVvHet Z Score (mmu-miR-29b-3p): 0.53
- RTVvHet Z Score (mmu-miR-29c-3p): 1.17
- RTVvHet Z Score (mmu-miR-30a-5p): 0.97
- RTV Direction Opposite dE? (mmu-miR-30a-5p, EVs of DYT1 (Het) MEFs): yes
- RTVvHet Z Score (mmu-miR-30b-5p): 1.23
- RTVvHet Z Score (mmu-miR-30c-5p (1st line so named)): 1.38
- RTVvHet Z Score (mmu-miR-30c-5p (2nd line so named)): 1.07
- RTV Direction Opposite dE? (mmu-miR-30c-5p, EVs of DYT1 (Het) MEFs): yes
- RTVvHet Z Score (mmu-miR-31-3p): 0.83
- RTVvHet Z Score (mmu-miR-31-5p): 1.41
- RTV Direction Opposite dE? (mmu-miR-31-5p, EVs of DYT1 (Het) MEFs): yes
- RTVvHet Z Score (mmu-miR-32-5p): 0.75
- RTVvHet Z Score (mmu-miR-33-5p): 1.52
- RTVvHet Z Score (mmu-miR-34a-5p): 1.38
- Abs Z Score Sum (Geno + RTV) [2]: 3.80
- RTV Direction Opposite dE? [2]: yes
- RTVvHet Z Score (mmu-miR-34b-5p): 1.55
- RTVvHet Z Score (mmu-miR-34c-3p): 0.78
- RTVvHet Z Score (mmu-miR-34c-5p): 1.33
- Abs Z Score Sum (Geno + RTV) [3]: 3.36
- RTV Direction Opposite dE? [3]: yes
- RTV Direction Opposite dE? (mmu-miR-93-5p, EVs of DYT1 (Het) MEFs): yes
- RTVvHet Z Score (mmu-miR-96-5p): 3.10
- Abs Z Score Sum (Geno + RTV) [4]: 5.01
- RTV Direction Opposite dE? [4]: yes
- RTVvHet Z Score (mmu-miR-98-5p): 0.42
- RTVvHet Z Score (mmu-miR-99a-5p): 0.73
- RTVvHet Z Score (mmu-miR-101b-3p): 0.52
- RTV Direction Opposite dE? (mmu-miR-103-3p, EVs of DYT1 (Het) MEFs): yes
- RTVvHet Z Score (mmu-miR-106b-3p): 0.15
- RTVvHet Z Score (mmu-miR-106b-5p): 0.54
- RTVvHet Z Score (mmu-miR-124-3p): −1.59
- RTVvHet Z Score (mmu-miR-125b-1-3p): 1.02
- Abs Z Score Sum (Geno + RTV) [5]: 3.85
- RTV Direction Opposite dE? [5]: yes
- RTVvHet Z Score (mmu-miR-130b-3p): 1.50
- Abs Z Score Sum (Geno + RTV) [6]: 3.92
- RTV Direction Opposite dE? [6]: yes
- RTV Direction Opposite dE? (mmu-miR-135a-5p, EVs of DYT1 (Het) MEFs): yes
- RTVvHet Z Score (mmu-miR-136-3p): 1.52
- RTVvHet Z Score (mmu-miR-140-3p): 2.54
- Abs Z Score Sum (Geno + RTV) [7]: 4.39
- RTV Direction Opposite dE? [7]: yes
- RTVvHet Z Score (mmu-miR-146a-5p): 0.10
- RTVvHet Z Score (mmu-miR-148a-3p): 1.86
- Abs Z Score Sum (Geno + RTV) [8]: 3.69
- RTV Direction Opposite dE? [8]: yes
- RTVvHet Z Score (mmu-miR-148b-3p): 0.58
- RTVvHet Z Score (mmu-miR-149-5p): 0.33
- RTVvHet Z Score (mmu-miR-151-5p): 0.32
- RTVvHet Z Score (mmu-miR-152-3p): 0.76
- RTVvHet Z Score (mmu-miR-181a-5p): 0.31
- RTVvHet Z Score (mmu-miR-181b-5p): 0.54
- RTVvHet Z Score (mmu-miR-181c-5p): 0.88
- RTVvHet Z Score (mmu-miR-182-5p): 5.33
- Abs Z Score Sum (Geno + RTV) [9]: 7.27
- RTV Direction Opposite dE? [9]: yes
